Test results: patent US12311136B2, “Using alternating electric fields to increase permeability of the blood brain barrier” (Novocure GmbH, priority 2020, dated 2025)

What was measured:
Assay type in all cases: in vivo
rat brain (BBB) [1] = assay: DCE-MRI of Gadolinium contrast agent accumulation in rat brain; details: for contrast agent accumulation in the brain tissue, injection 96 h after the fields were turned off: 72 hours fields followed by 96 hours without fields vs control+96 h
Description: Yet another set of in vivo experiments was performed using Dynamic Contrast Enhanced MRI (DCE-MRI) with intravenous injection of Gadolinium contrast agent (Gd-DTPA, Magnetol, MW 547). In these experiments, test rats were treated with 100 kHz alternating electric fields for 72 h, and control rats were not treated with alternating electric fields for the same period of time. After this 72 h period, the alternating electric field was turned off, the rats were anesthetized, and a series of 60 T1w MRI scans (each of the scans having a duration of 28 seconds) was acquired. The gadolinium contrast agent was injected into the rat's tail vein during the 7th of these 60 scans.
The image analysis for each rat included (1) determining a baseline for each voxel by calculating the mean of the first six T1w MM scans for each voxel (i.e., the scans prior to the injection of the gadolinium); (2) computing voxel by voxel, the percent signal change (i.e., gadolinium accumulation) over time relative to the baseline; (3) segmenting the brain into anterior, middle, and posterior segments; (4) generating for each of the three segments the mean percent signal change with respect to the baseline over all the voxels in the respective segment and then (5) averaging 4 consecutive time points (i.e. 4 scans) together. Finally, the data from all of the rats within any given group were averaged together.
To test whether this increase in permeability of the BBB was temporary, the same test conditions were repeated, but followed with an additional 96 hours without alternating electric fields. After this 96 hour period, a series of 60 T1w MRI scans (each of the scans having a duration of 28 seconds) was acquired using the same procedure described above (including the gadolinium injection). The results of this portion of the DCE-MRI experiment for each of the three segments of the brain are also depicted in FIG. 8. […] From this we can conclude that the permeability of the BBB returns to normal after the alternating electric fields are discontinued.
The relationship between the intensity of the alternating electric fields and the impact of those fields on BBB integrity and permeability was also apparent from in vivo experiments in rats using serial dynamic contrast-enhanced (DCE) MM to measure gadolinium (Gd) uptake after 100 kHz alternating electric fields were applied for 72 hours. The rat's brains were segmented into three regions (anterior, posterior, and middle), and simulations of the alternating electric fields delivery to those three regions yielded field strengths of 1.5±0.6 V/cm RMS, 2.1±1.2 V/cm RMS, and 2.7±1.7 V/cm RMS respectively. […] These findings also indicate that the cells' response to alternating electric fields depends on the intensity of the fields.

rat brain (BBB) [2] = assay: Evans Blue (EB) accumulation in rat brain after alternating electric fields
From the text: A set of in vivo experiments on rats was also run to quantify the increase in vessel permeability caused by exposure to the alternating electric fields. These experiments used Evans Blue (EB) dye, which is an azo dye that has a very high affinity for serum albumin (molecule size ˜69 kDa). Because of its large molecule size, serum albumin will ordinarily not be able to get past the BBB.
This was accomplished by shaving each rat's head, positioning a first pair of capacitively coupled electrodes on the top and bottom of the rat's head, and positioning a second pair of capacitively coupled electrodes on the left and right sides of the rat's head. A 100 kHz AC voltage was then applied between the top and bottom electrodes for 1 second, followed by a 100 kHz AC voltage applied between the right and left electrodes for 1 second, in a repeating sequence.
Under the conditions indicated in Table 1 and for the times indicated on Table 1, EB was injected intravenously into the tail vein under anesthesia (Once injected, EB immediately binds to Albumin), and the EB was allowed to circulate for 2 hours in all cases. The following steps were then performed: (a) intracardiac perfusion with saline; (b) brains are sliced in four pieces with a brain slicer; (c) pieces were photographed to localize staining and weighted; (d) EB extraction after tissue homogenization with TCA 50% (1:3) and centrifuge and (e) EB quantification at 610 nm. Results are given as μg EB per g tissue.
During the experiment, two animals from group 2 and one animal from group 4 were excluded (disrupted treatment, failure to inject EB into the tail vein). There were no differences between the animals treated with alternating electric fields (groups 1 and 2) and therefore these animals were grouped together. Similarly, there were no differences between sham heat and control animals (groups 3 and 4) and therefore these animals were grouped together.
EB accumulation in these four specific sections was then measured. In addition, a computer simulation was performed to determine the field strength in each of these four sections. […]

GBM F98 cells [3] = assay: Paclitaxel plus alternating electric fields in rat GBM, Ki67/DAPI cell proliferation; details: 25 mg/kg PTX i.p. after 72 hours 100 kHz fields; day 13; vs alternating electric fields only
Description: (§1) Another set of in vivo experiments was performed to determine whether paclitaxel (PTX, which is a drug that ordinarily cannot traverse the BBB) can make it across the BBB when the subject is treated with alternating electric fields. In one of these experiments, glioblastoma was induced in rats by injecting them orthotopically with GBM F98 cells on day 0 of the experiment. On day 6, a first set of MRI scans of each rat's brains was obtained. Alternating electric fields at 100 kHz were applied to all the rats on days 7 through 10. On day 10 (i.e., after applying the fields for 72 hours), some of the rats were injected i.p. with 25 mg/kg PTX, while other rats were not injected. Subsequently, on day 13 (i.e., 3 days post PTX administration), a second set of MRI scans of each rat's brain was obtained. Ki67 (red) and DAPI (blue) staining was evaluated for the test and control rats.

GBM F98 cells [4] = assay: Paclitaxel plus alternating electric fields in rat GBM, fold increase of tumor volume; details: 15 mg/kg PTX with 100 kHz fields, day 15, vs heat only
Description: as §1
A similar experiment using a 15 mg/kg dose of PTX was performed, except that instead of quantifying the Ki67/DAPI ratio on day 13, MRI scans and post mortem tissue sections were used to determine the fold increase of the tumor volume on day 15. The tumor volumes from these experiments are depicted in FIG. 11. […] And the inventors have concluded that the alternating electric fields allow the PTX (or metabolites thereof) to cross the BBB.

O=C([O-])CN(CCN(CC(=O)[O-])CC(=O)O)CCN(CC(=O)[O-])CC(=O)O.[Gd+3] [Gd-DTPA]
Gd signal enhancement in the middle and posterior brain (rat brain (BBB) [1]; 100 kHz fields 72 hours, about 10 minutes after Gd injection, vs control rats): significantly increased signal enhancement
Gd accumulation in the anterior part of the brain (rat brain (BBB) [1]; 100 kHz fields 72 hours, lower field intensities in this region): no significant Gd accumulation
contrast agent accumulation in the brain tissue (DCE-MRI percent signal change) (rat brain (BBB) [1]; 100 kHz fields 72 h vs control rats, anterior, middle, posterior segments): significantly higher than in the control rats
contrast agent accumulation in the brain tissue, injection 96 h after the fields were turned off (rat brain (BBB) [1]; listed as Gd): no significant accumulation of Gd
contrast agent accumulation in the brain tissue, injection 96 h after the fields were turned off (rat brain (BBB) [1]; listed as contrast agent): not significantly different from the control rats
Gd accumulation in control rats (rat brain (BBB) [1]; rats not treated using alternating electric fields): No significant Gd accumulation
spatial distribution of Gd enhancement (rat brain (BBB) [1]; test rats (100 kHz fields 72 h), 20 to 23 minutes post-contrast administration): distributed in the whole brain

Cc1cc(-c2ccc(/N=N/c3ccc4c(S(=O)(=O)O)cc(S(=O)(=O)O)c(N)c4c3O)c(C)c2)ccc1/N=N/c1ccc2c(S(=O)(=O)O)cc(S(=O)(=O)O)c(N)c2c1O [EB, Evans Blue]
average EB accumulation in the rat brain, averaged over all four sections 1-4 (rat brain (BBB) [2]; 100 kHz fields 72 hours vs sham heat/control, p<0.05): higher accumulation of EB
EB accumulation, brain sections 1, 2 (frontal cerebrum) (rat brain (BBB) [2]; 100 kHz fields 72 h vs sham heat/control, EB i.v., circulating 2 hours, field strength highest): statistically significant increase
EB accumulation, posterior brain sections (3, 4) (rat brain (BBB) [2]; 100 kHz fields 72 h vs sham heat/control, EB i.v., circulating 2 hours, field strength lower): smaller increase (that was not statistically significant)

CC(=O)O[C@H]1C(=O)[C@@]2(C)[C@H]([C@H](OC(=O)c3ccccc3)[C@]3(O)C[C@H](OC(=O)[C@H](O)[C@@H](NC(=O)c4ccccc4)c4ccccc4)C(C)=C1C3(C)C)[C@]1(OC(C)=O)CO[C@@H]1C[C@@H]2O [PTX, paclitaxel]
cell proliferation in the GBM tumor (Ki67/DAPI ratio) (GBM F98 cells [3]): significant decrease in cell proliferation
fold tumor volume increase in the GBM tumor (GBM F98 cells [4]): significant decrease in the fold tumor volume increase
